Measurements from publication PMC9863004, “Development of [^124/125I]IAZA as a New Proteinopathy Imaging Agent for Alzheimer’s Disease” (Molecules, 2023).

Columns and labels:
[1] = target: T1, Aβ amyloid plaques (amyloid β) (Homo sapiens, UniProt P05067); assay: autoradiographic radioligand competition with […]IBETA in human AD brain slices; direct [[…]I]IAZA binding
T1 construct: gene APP; aggregated Aβ plaques in postmortem human AD brain slices

[2] = target: T1, Aβ amyloid plaques (amyloid β); assay: displacement of […]IAZA at […], autoradiography in human AD brain slices

T1 sequence (P05067 18-770): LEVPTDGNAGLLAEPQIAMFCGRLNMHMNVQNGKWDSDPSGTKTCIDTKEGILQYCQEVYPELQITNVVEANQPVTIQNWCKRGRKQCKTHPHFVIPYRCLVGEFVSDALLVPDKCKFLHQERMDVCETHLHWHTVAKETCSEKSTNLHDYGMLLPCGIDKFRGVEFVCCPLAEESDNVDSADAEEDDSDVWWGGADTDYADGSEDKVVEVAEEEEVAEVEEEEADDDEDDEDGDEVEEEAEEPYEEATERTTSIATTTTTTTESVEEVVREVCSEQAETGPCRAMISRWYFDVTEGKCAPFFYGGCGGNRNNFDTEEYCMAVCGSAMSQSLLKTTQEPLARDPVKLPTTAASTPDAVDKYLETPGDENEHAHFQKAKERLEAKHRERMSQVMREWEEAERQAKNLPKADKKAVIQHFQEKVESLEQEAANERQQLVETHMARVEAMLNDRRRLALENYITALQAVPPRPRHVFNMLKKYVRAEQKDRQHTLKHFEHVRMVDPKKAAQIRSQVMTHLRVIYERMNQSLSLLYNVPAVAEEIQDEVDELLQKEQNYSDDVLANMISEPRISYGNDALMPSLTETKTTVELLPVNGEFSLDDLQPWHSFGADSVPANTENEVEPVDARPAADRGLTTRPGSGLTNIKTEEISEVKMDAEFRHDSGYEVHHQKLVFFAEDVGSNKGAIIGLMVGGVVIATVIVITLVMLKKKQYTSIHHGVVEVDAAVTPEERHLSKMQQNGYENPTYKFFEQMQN

Ki [1] | inhibition at 10 µM [2] | Structure (SMILES)
10.9 nM |  | CN(C)c1ccc(N=Nc2ccc(I)cc2)cc1 [compound 5, 4′-iodo-4-dimethylaminoazobenzene]
 | > 95% | CN(C)c1ccc(-c2cc3cc(Br)ccc3o2)cn1 [BrBETA]
